One may read the IC50 as the concentration at which inhibition is half-maximal.

In one experiment the test system is A2058. The experiment is described as follows: Clonogenic assay with 1.15.1-AE. In kind it is cell-based, human. As to the method: (§1) Melanoma cell lines were plated onto flat bottom 96-well tissue culture plates (Becton Dickinson, Franklin Lakes, N.J., USA). On day 2 or when cells reach ˜25% confluency, various concentrations of unconjugated and Auristatin E-conjugated 1.15.1 were added to cells. MAb 2.6.2-AE was also used as a conjugated isotype control in this study. On day 5, the cells were trypsinized, transferred to 6-well tissue culture plates and incubated at 37° C. Plates were examined daily. On days 8-10, all plates were Giemsa stained and colonies on the plates were counted.

For another experiment, the system named is HEMNLP. The experiment can be described thus: Clonogenic assay with 1.15.1-AE. In kind it is cell-based, human. As to the method:
as §1

The test system of another experiment is HT144. The experiment can be described thus: Clonogenic assay with 1.15.1-AE. In kind it is cell-based, human. As to the method:
as §1

Another experiment has as its system LOXIMVI. The experiment is described as follows: Clonogenic assay with 1.15.1-AE. In kind it is cell-based, human. As to the method:
as §1

The subject of the next experiment is M14. The experiment can be described thus: Clonogenic assay with 1.15.1-AE. In kind it is cell-based, human. As to the method:
as §1

Another experiment has as its system MEWO. The experiment is described as follows: Clonogenic assay with 1.15.1-AE. In kind it is cell-based, human. As to the method:
as §1

In experiment [1] the test system is SK-MEL-2 melanoma xenografts. The experiment can be described thus: Dosing interval (schedule dependency) study, SK-MEL-2 xenograft. In kind it is in vivo, athymic mice. As to the method:
Nota bene: Please note that, although all 5 sets of groups in this experiment (e.g., groups 5, 6, and 7 represent one set and received 32, 8, and 2 mg/kg cumulative dose, respectively) received the same cumulative doses, the first set receiving the “bolus dose” is different from the other 4 sets. The Cmax for each group in the “bolus” set was likely four-fold higher that the Cmax for the other 4 sets (see section on pharmacokinetics for dose-linearity after i.v. administration), since 4 sets of groups received 4 treatments, whereas the first set received only one “bolus” treatment (see column 7, Table 49 below).
The aggregate responses for each set of groups, where a set is defined as 3 groups of graduated dosage levels but one dosage interval (groups 5, 6, and 7 represent 1 set, all of which were treated with a dosing interval of 1 day) are shown in FIG. 7. […] However, this effect was not significant (P<0.2904).
The original design of this study was expanded to include an examination of the effects of various dosage levels. For each set, one group of animals received a cumulative dose of 8 mg/kg, which, from previous studies employing a dosing interval of 4 days, provided consistent therapeutic effects leading to long-term tumor-free animals. In addition, cumulative doses of 2 mg/kg and 32 mg/kg were employed.

Another experiment deals with SNB-78. The experiment can be described thus: Clonogenic assay with CR011-vcMMAE. In kind it is cell-based, human. As to the method: (§2) Cells were plated in 96-well plates and allowed to recover overnight. […] The cells were then transferred into 6-well plates and allowed to form colonies. Colonies were stained with Giemsa stain (Sigma) and counted. The surviving cell fractions were calculated based upon the ratio of the treated sample and the untreated control. The results were expressed as a percentage of control using GraphPad Prism Version 4 software.

Another experiment deals with XF-498. The experiment is described as follows: Clonogenic assay with CR011-vcMMAE. In kind it is cell-based, human. As to the method:
as §2

Experiment [2] has as its system SK-MEL-2 human melanoma xenograft. The experiment is described as follows: SK-MEL-2 human melanoma xenograft in athymic mice. The settings on record: observation period >200 days. In kind it is in vivo.
For the next experiment, the target named is T1, CG56972 (Homo sapiens, UniProt Q14956).
T1 construct: endogenous in cells; host or cells: SK-MEL-2, XF-498, U-118-MG, SNB-78, SF-539, SF-268 and further human lines (ATCC / NCI)
T1 sequence (Q14956 23-572): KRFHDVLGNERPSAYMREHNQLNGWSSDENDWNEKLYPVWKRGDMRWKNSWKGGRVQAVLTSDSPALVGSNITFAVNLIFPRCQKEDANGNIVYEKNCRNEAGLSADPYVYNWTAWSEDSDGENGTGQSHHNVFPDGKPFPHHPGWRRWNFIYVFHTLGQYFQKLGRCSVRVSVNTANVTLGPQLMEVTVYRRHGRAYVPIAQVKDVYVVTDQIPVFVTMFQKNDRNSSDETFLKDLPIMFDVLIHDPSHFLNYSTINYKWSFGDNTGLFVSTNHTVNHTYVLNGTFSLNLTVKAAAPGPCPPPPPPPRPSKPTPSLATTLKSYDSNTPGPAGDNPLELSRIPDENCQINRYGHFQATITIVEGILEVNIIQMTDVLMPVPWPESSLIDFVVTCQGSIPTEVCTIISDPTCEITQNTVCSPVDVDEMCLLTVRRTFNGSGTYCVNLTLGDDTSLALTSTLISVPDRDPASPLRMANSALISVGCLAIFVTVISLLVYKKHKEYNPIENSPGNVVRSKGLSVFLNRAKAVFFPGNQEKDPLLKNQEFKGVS
The experiment is described as follows: Flow cytometry of CR011 binding to cell surface CG56972/GPNMB (GMR). As to the method:
Quantitative analysis of GPNMB expression on the cell surface of cell lines was determined by flow cytometry. […] Cells were fixed in 1% paraformaldehyde/PBS and examined on a Becton Dickinson FACSCalibur flow cytometer. Data analysis was performed with Becton Dickinson Cell Quest software version 3.3 and the geometric mean fluorescence intensity ratio (GMR) was determined for each cell type.
Quantitative analysis of CG56972 expression on the surface of cell lines was determined by flow cytometry (FACS). […] Cells were fixed in 1% paraformaldehyde/PBS and examined on a Becton Dickinson FACSCalibur flow cytometer. Data analysis was performed with Becton Dickinson Cell Quest software version 3.3 and the geometric mean fluorescence intensity ratio (GMR) was determined for each cell type.
In general terms: A flow cytometer gives signals particle by particle.

Experiment [3] has as its system CG56972-expressing cancer cells. The experiment is described as follows: Growth inhibition by CR011 with saporin-conjugated secondary antibody. In kind it is cell-based, human. The settings on record: data not shown.

For the substance “CR011-vcMMAE: CR011 conjugated to monomethyl auristatin E through a protease cleavable valine-citrulline linker; approx. 4 drugs per antibody”, the “Clonogenic Assay with 1.15.1-AE IC50 in ng/mL” value in the experiment on A2058 is listed as “No effect”; in the experiment on HEMNLP, “Inconclusive”; in the experiment on HT144, “Inconclusive”; in the experiment with LOXIMVI it was “No effect”; in the experiment on M14, “Inconclusive”; with MEWO it was “Inconclusive”. In addition, the complete regressors in experiment [1] (2 mg/kg cumulative dose) was 13%. The complete regressions in experiment [1] (8 mg/kg cumulative dose, all dosing intervals (28/30)) is on record as 93%; in experiment [1] (cumulative dose of 32 mg/kg, all dosing intervals (30 test animals)), 100%. Also, in experiment [1] (dosing intervals 0, 1, 4, 8, 16 days), the “schedule dependency of anti-tumor effects” value is “not schedule-dependent”. Further, the IC50 with SNB-78 is approximately 0.45 µg/mL; in the experiment with XF-498 it was “approximately 215 ng/mL”. The “re-growth of completely regressed tumors” value in experiment [2] is on record as “did not re-grow”.
With “CR011: fully human monoclonal antibody that specifically binds to GPNMB; VH SEQ ID NO: 20, VL SEQ ID NO: 29”, the “surface staining above control mAb background” value in the experiment with CG56972 (SF-268, CR011 10 μg/mL) is “around 1.5 fold”. Besides, the “surface staining above isotype control mAb background” value with CG56972 (SF-539, CR011 10 μg/mL) was “at least 1.5 fold”; in the experiment with CG56972 (SNB-78, CR011 10 μg/mL), “at least 1.5 fold”; with CG56972 (U-118-MG, CR011 10 μg/mL), “at least 1.5 fold”; with CG56972 (XF-498, CR011 10 μg/mL), “at least 1.5 fold”. Also, the “cell surface staining (in words)” value with CG56972 (SK-MEL-2) is “strong cell surface staining”. Further, the “growth inhibition with saporin-conjugated secondary antibody (in words)” value in experiment [3] is reported as “could specifically inhibit the growth”.

For the origin of these results see US20130244255A1, “ANTIBODIES DIRECTED TO GPNMB AND USES THEREOF” (priority 2006, published 2013).
